Source: patent US10065990B2, “Cyclic peptide compound, and preparation method, pharmaceutical composition and use thereof” (HANGZHOU GUANYU BIO-MEDICAL CO., LTD, priority 2013, dated 2018)
Where two headings read alike, the source gives them in different places.

What was measured:
Assay in all cases: MTT cancer cell growth inhibition
Assay type in all cases: cell-based
[1] = system: A549 (human lung cancer cells); conditions: Homo sapiens, A549, 72 h, MTT
How it was run: (§1)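 GI50 values come from viability measured by MTT reduction at 570 nm. Plated overnight at 1500 cells per well, cultures received drug in three parallel wells across 10^−5–10^−10 M final and were incubated 72 h at 37° C. under 5% CO2 before MTT for 4 h.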

[2] = system: BGC-823 (human gastric cancer cells); conditions: MTT
How it was run: as §1

[3] = system: DU145 (human prostate cancer cells); conditions: Homo sapiens, DU-145, 72 h, MTT
How it was run: as §1

[4] = system: H1975 (non-small cell lung adenocarcinoma); conditions: MTT, 72 hours incubation, H1975 cells, read-out: GI50 H1975
How it was run: as §1

[5] = system: Hela (human cervical cancer cells); conditions: Homo sapiens, HeLa, 72 h, MTT
How it was run: as §1

[6] = system: Huh-7 (human hepatoma cells); conditions: MTT, 72 hours incubation, Huh-7 cells, read-out: GI50 Huh-7
How it was run: as §1

[7] = system: KBM-5 (human chronic myelogenous leukemia); conditions: MTT, 72 hours incubation, KBM-5 cells, read-out: GI50 KBM-5
How it was run: as §1

[8] = system: KBM5-T315I (human chronic myelogenous leukemia); conditions: MTT, 72 hours incubation, KBM5-T315I cells, read-out: GI50 KBM5-T315I
How it was run: as §1

[9] = system: MCF-7 (human breast cancer cells); conditions: Homo sapiens, MCF7, 72 h
How it was run: as §1

[10] = system: MDA-MB-231 (breast cancer cells)
How it was run: as §1

[11] = system: MOLT-4 (human acute lymphoblastic leukemia cells); conditions: Homo sapiens, MOLT-4, 72 h, MTT
How it was run: as §1

[12] = system: PANC-1 (Pac-1, human pancreatic cancer cells); conditions: Homo sapiens, PANC-1, 72 h, MTT
How it was run: as §1

[13] = system: SGC-7901 (human gastric cancer cells); conditions: MTT, 72 hours incubation, SGC-7901 cells, read-out: GI50 SGC-7901
How it was run: as §1

[14] = system: U937 (human leukemia cells); conditions: Homo sapiens, U-937, 72 h, MTT
How it was run: as §1

[15] = system: lncap (prostate cancer cells); conditions: Homo sapiens, LNCaP, 72 h, MTT
How it was run: as §1

[16] = A549 cells, 72 hours incubation, read-out: GI50 A54
[17] = 72 hours, present invention, read-out: GI50 A549, a
[18] = Homo sapiens, BGC-823, 72 h, BGC-823 cells, 72 hours incubation, read-out: GI50 BG
[19] = Homo sapiens, BGC-823, 72 h, 72 hours, present invention, read-out: GI50 BGC823, a
[20] = 72 hours, present invention, read-out: GI50 Du145, a
[21] = Hela cells, 72 hours incubation, read-out: GI50 Hela
[22] = 72 hours, present invention, read-out: GI50 Hela, a
[23] = 72 hours, present invention, read-out: GI50 MCF7, a
[24] = Homo sapiens, MDA-MB-231, 72 h, read-out: GI50 MDA-MB-231, MTT, 72 hours incubation, MDA-MB-231 cells
[25] = MOLT-4 cells, 72 hours incubation, read-out: GI50 Mol
[26] = 72 hours, present invention, read-out: GI50 Molt-4, a
[27] = 72 hours, present invention, read-out: GI50 PANC-1, a
[28] = PANC-1 cells, 72 hours incubation, read-out: GI50 PAN
[29] = 72 hours, present invention, read-out: GI50 U937, a
[30] = U937 cells, 72 hours incubation, read-out: GI50 U93
[31] = 72 hours, present invention, read-out: GI50 lncap, a
[32] = lncap cells, 72 hours incubation, read-out: GI50 lnca
[33] = 72 hours incubation, read-out: GI50 A54
[34] = Homo sapiens, BGC-823, 72 h, 72 hours incubation, read-out: GI50 BG
[35] = 72 hours incubation, read-out: GI50 Du1
[36] = 72 hours incubation, read-out: GI50 Hela
[37] = 72 hours incubation, read-out: GI50 MCF
[38] = 72 hours incubation, read-out: GI50 Mol
[39] = 72 hours incubation, read-out: GI50 PAN
[40] = 72 hours incubation, read-out: GI50 U93
[41] = 72 hours incubation, read-out: GI50 lnca
[42] = DU145 cells, 72 hours incubation, read-out: GI50 Du1
[43] = MCF-7 cells, 72 hours incubation, read-out: GI50 MCF

Row | SMILES | GI50 [1, 16] [nM] | GI50 [2, 18] [nM] | GI50 ([4]; Homo sapiens, NCI-H1975, 72 h) [nM] | GI50 [5, 21] [nM] | GI50 ([6]; Homo sapiens, Huh-7, 72 h) [nM] | GI50 ([7]; Homo sapiens, KBM5, 72 h) [nM] | GI50 ([8]; Homo sapiens, 72 h) [nM] | GI50 [10, 24] [nM] | GI50 [11, 25] [nM] | GI50 [12, 28] [nM] | GI50 ([13]; Homo sapiens, SGC-7901, 72 h) [nM] | GI50 [14, 30] [nM] | GI50 [15, 32] [nM] | GI50 [1, 33] [nM] | GI50 [3, 35] [nM] | GI50 [5, 36] [nM] | GI50 [9, 37] [nM] | GI50 [11, 38] [nM] | GI50 [12, 39] [nM] | GI50 [14, 40] [nM] | further results
1 | C/C=C1\NC(=O)c2nc(ccc2F)CNC(=O)C[C@@H](/C=C/CCSC=O)OC(=O)[C@H](C(C)C)NC1=O [Example 51] |  |  | 63 |  | 29 | 83 | 77 | 29 |  |  | 45 |  |  | 40 | 40 | 80 | 70 | 20 | 70 | 60 | GI50 [2, 34]: 60 nM; GI50 [15, 41]: 20 nM
2 | C/C=C1\NC(=O)c2cc(SC)cc(n2)CNC(=O)C[C@@H](/C=C/CCSC(C)=O)OC(=O)[C@H](CC)NC1=O [Compound 178] | 30 | 60 | 89 | 60 | 42 | 93 | 22 | 26 | 50 | 350 | 76 | 90 | 50 |  |  |  |  |  |  |  | GI50 [3, 42]: 20 nM; GI50 [9, 43]: 30 nM
3 | C/C=C1\NC(=O)c2nc(ccc2F)CNC(=O)C[C@@H](/C=C/CCSC(C)=O)OC(=O)[C@H](C(C)C)NC1=O [Example 48] |  |  |  |  |  |  |  |  |  |  |  |  |  | 60 | 20 | 70 | 60 | 30 | 40 | 20 | GI50 ([2]; 72 hours incubation, read-out: GI50 BG): 80 nM; GI50 [4]: 28 nM; GI50 [6]: 35 nM; GI50 [7]: 76 nM; GI50 [8]: 61 nM; GI50 ([10]; read-out: GI50 MDA-MB-231, MTT, 72 hours incubation, MDA-MB-231 cells): 35 nM; GI50 [13]: 69 nM; GI50 [15, 41]: 30 nM
4 | CCCCCCCC(=O)SCC/C=C/[C@@H]1CC(=O)NCc2cccc(n2)C(=O)NCC(=O)N[C@@H](C(C)C)C(=O)O1 [Compound 246] | 110 | 1020 | 63 | 10 | 21 | 56 | 33 | 47 | 910 | 870 | 32 | 110 | 130 |  |  |  |  |  |  |  | GI50 [1, 17]: 110 nM; GI50 [2, 19]: 1020 nM; GI50 [3, 42]: 20 nM; GI50 [3, 20]: 20 nM; GI50 [5, 22]: 13 nM; GI50 [9, 23]: 310 nM; GI50 [9, 43]: 310 nM; GI50 [11, 26]: 910 nM; GI50 [12, 27]: 870 nM; GI50 [14, 29]: 110 nM; GI50 [15, 31]: 130 nM

More lines, in order of falling GI50 ([4]; Homo sapiens, NCI-H1975, 72 h), values ahead:

Row | GI50 [1, 16] [nM] | GI50 [2, 18] [nM] | GI50 ([4]; Homo sapiens, NCI-H1975, 72 h) [nM] | GI50 [5, 21] [nM] | GI50 ([6]; Homo sapiens, Huh-7, 72 h) [nM] | GI50 ([7]; Homo sapiens, KBM5, 72 h) [nM] | GI50 ([8]; Homo sapiens, 72 h) [nM] | GI50 [10, 24] [nM] | GI50 [11, 25] [nM] | GI50 [12, 28] [nM] | GI50 ([13]; Homo sapiens, SGC-7901, 72 h) [nM] | GI50 [14, 30] [nM] | GI50 [15, 32] [nM] | GI50 [1, 33] [nM] | GI50 [3, 35] [nM] | GI50 [5, 36] [nM] | GI50 [9, 37] [nM] | GI50 [11, 38] [nM] | GI50 [12, 39] [nM] | GI50 [14, 40] [nM] | SMILES | further results
5 | 10 | 190 | 56 | 70 | 61 | 71 | 83 | 37 | 30 | 110 | 24 | 30 | 10 |  |  |  |  |  |  |  | C/C=C1\NC(=O)c2cccc(n2)CNC(=O)C[C@@H](/C=C/CCSC(=O)CCCCCCC)OC(=O)[C@H](CCSC)NC1=O [Compound 240] | GI50 [1, 17]: 36 nM; GI50 [2, 19]: 110 nM; GI50 [3, 20]: 4 nM; GI50 [5, 22]: 18 nM; GI50 [9, 23]: 1 nM; GI50 [11, 26]: 18 nM; GI50 [12, 27]: 190 nM; GI50 [14, 29]: 12 nM; GI50 [15, 31]: 70 nM
6 |  |  | 53 |  | 38 | 81 | 94 | 38 |  |  | 38 |  |  | 30 | 30 | 80 | 90 | 30 | 60 | 50 | C/C=C1\NC(=O)c2cc(F)cc(n2)CNC(=O)C[C@@H](/C=C/CCSC(=O)CCCCCCC)OC(=O)[C@H](C)NC1=O [Compound 61] | GI50 [2, 34]: 70 nM; GI50 [15, 41]: 30 nM
